Data: paper PMC5814837 (Pest Management Science, 2017)
≈ marks a conversion by molar mass, not a printed value. Where “and” joins values, the source holds several entries; their conditions need not be identical. Equal values may be shown once. Read-outs that look alike come from different tables or passages of the source.

Key:
Zymoseptoria tritici [1] = assay: microbe, parasite or virus in culture; type: cell-based
[2] = molecular target: mitochondrial succinate dehydrogenase (SDH) (Zymoseptoria tritici, UniProt F9X9V6+F9XH52+O42772); assay: biochemical; details: IC50
[3] = molecular target: mitochondrial succinate dehydrogenase (SDH); assay: biochemical; parameters: species or system Zymoseptoria tritici
Zymoseptoria tritici [4] = details: in vivo
[5] = Zymoseptoria tritici, read-out: EC50 Median
[6] = Zymoseptoria tritici, read-out: EC50 Range

mitochondrial succinate dehydrogenase (SDH) (Zymoseptoria tritici, UniProt F9X9V6+F9XH52+O42772), sequence (O42772 19-297): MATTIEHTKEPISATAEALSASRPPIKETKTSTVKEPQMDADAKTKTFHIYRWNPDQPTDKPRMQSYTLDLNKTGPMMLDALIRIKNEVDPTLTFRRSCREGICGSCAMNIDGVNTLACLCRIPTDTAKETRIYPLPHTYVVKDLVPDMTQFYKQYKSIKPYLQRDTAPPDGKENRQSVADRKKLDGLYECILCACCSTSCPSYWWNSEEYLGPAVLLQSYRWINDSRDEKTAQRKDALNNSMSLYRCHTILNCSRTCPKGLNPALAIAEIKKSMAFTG
mitochondrial succinate dehydrogenase (SDH) (Zymoseptoria tritici, UniProt F9X9V6+F9XH52+O42772), sequence (F9XH52 44-187): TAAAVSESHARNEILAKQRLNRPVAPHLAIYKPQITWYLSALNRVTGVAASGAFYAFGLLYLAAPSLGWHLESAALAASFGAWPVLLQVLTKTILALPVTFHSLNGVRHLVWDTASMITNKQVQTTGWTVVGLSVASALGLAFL
mitochondrial succinate dehydrogenase (SDH) (Zymoseptoria tritici, UniProt F9X9V6+F9XH52+O42772), sequence (F9X9V6 1-193): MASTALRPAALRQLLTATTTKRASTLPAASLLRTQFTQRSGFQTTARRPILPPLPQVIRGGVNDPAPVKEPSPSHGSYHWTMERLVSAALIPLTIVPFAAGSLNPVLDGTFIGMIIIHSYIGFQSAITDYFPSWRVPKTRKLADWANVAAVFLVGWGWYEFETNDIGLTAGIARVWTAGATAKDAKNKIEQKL
mitochondrial succinate dehydrogenase (SDH) (Zymoseptoria tritici, UniProt F9X9V6+F9XH52+O42772), sequence (F9WWR1 29-643 partner): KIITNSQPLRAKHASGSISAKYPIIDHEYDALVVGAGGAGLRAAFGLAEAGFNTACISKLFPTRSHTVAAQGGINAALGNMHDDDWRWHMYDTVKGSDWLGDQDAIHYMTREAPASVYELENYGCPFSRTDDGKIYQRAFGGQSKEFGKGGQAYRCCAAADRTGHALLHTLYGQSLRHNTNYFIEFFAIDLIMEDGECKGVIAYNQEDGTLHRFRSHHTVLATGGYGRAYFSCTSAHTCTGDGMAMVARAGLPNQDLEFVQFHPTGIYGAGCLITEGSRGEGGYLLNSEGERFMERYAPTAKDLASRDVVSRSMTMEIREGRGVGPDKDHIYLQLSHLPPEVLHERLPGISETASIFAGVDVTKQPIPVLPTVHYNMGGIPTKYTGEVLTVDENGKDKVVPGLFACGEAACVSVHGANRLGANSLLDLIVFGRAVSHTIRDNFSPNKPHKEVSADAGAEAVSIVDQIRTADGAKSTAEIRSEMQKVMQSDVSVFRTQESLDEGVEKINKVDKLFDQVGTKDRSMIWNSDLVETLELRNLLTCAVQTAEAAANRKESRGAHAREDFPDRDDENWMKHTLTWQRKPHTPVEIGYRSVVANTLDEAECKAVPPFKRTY

Compound	EC50 (Zymoseptoria tritici [1]; Zymoseptoria tritici)	EC50 (Zymoseptoria tritici [1])	EC50 Median (Zymoseptoria tritici [1])	EC50 (Zymoseptoria tritici [1]; [5])	also measured
CC(C)CC(C)c1sccc1NC(=O)c1cn(C)nc1C(F)(F)F (stereo not drawn) [Penthiopyrad, penthiopyrad]	0.05 µg/mL (≈ 0.139 µM)	–	–	–	–
Cn1cc(C(=O)Nc2ccccc2-c2cc(F)c(F)c(F)c2)c(C(F)F)n1 [Fluxapyroxad]	0.04 µg/mL (≈ 0.105 µM)	0.04 µg/mL (≈ 0.105 µM)	–	–	RF in comparison with reference strain IPO323 (Zymoseptoria tritici [1]): < 10
O=C(Nc1ccccc1-c1ccc(Cl)cc1)c1cccnc1Cl [Boscalid, boscalid]	0.16 µg/mL (≈ 0.466 µM)	–	–	–	–
[Cl][Sn]([c]1ccccc1)([c]1ccccc1)[c]1ccccc1 [Fentin Cl, fentin chloride]	–	0.07 µg/mL	–	–	–
Cn1cc(C(=O)Nc2ccc(F)cc2-c2ccc(Cl)c(Cl)c2)c(C(F)F)n1 [Bixafen, bixafen]	0.03 µg/mL (≈ 0.0724 µM)	0.03 µg/mL (≈ 0.0724 µM)	0.096 µg/mL (≈ 0.232 µM)	0.063 µg/mL (≈ 0.152 µM)	EC50 (Zymoseptoria tritici [1]; [6]): 0.017 to 0.406 µg/mL (≈ 0.041 to 0.98 µM); IC50 [2]: 33 nM and 38 nM; IC50 [3]: 31 nM and 49 nM; Control efficacy (Zymoseptoria tritici [4]): 0%; application rate at which strain was well controlled (Zymoseptoria tritici [4]): 3 mg/L; application rate at which strains were well controlled (Zymoseptoria tritici [4]): 10 mg/L
Cc1cccc(N(C)C(=S)Oc2ccc3ccccc3c2)c1 [Tolnaftate, tolnaftate]	0.17 µg/mL (≈ 0.553 µM)	–	–	–	growth in the presence of tolnaftate (Zymoseptoria tritici [1]): none of these strains was able to grow
Cc1cc(OC(C)C)ccc1C(=O)C(C)(C)NC(=O)c1sccc1C [Isofetamid, N‐[1,1‐dimethyl‐2‐(4‐isopropoxy‐o‐tolyl)‐2‐oxoethyl]‐3‐methylthiophene‐2‐carboxamide]	–	0.06 µg/mL (≈ 0.167 µM)	0.096 µg/mL (≈ 0.267 µM)	0.09 µg/mL (≈ 0.25 µM)	EC50 (Zymoseptoria tritici [1]; Zymoseptoria tritici, read-out: high EC50 values (upper end of the sensitivity range)): > 50 µg/mL; in planta control (in words) (Zymoseptoria tritici [4]): not controlled
N#Cc1c(Cl)c(Cl)c(Cl)c(C#N)c1Cl [Chlorothalonil, chlorothalonil]	0.13 µg/mL (≈ 0.489 µM)	–	–	–	Resistance factor (RF) (Zymoseptoria tritici [1]): 0.8 and 1.2 and 1.3 and 1.4 and 0.7; sensitivity of strains (in words) (Zymoseptoria tritici [1]): sensitive
O=C(NCCc1ncc(C(F)(F)F)cc1Cl)c1ccccc1C(F)(F)F [Fluopyram, fluopyram]	0.2 µg/mL (≈ 0.504 µM)	0.20 µg/mL (≈ 0.504 µM)	0.215 µg/mL (≈ 0.542 µM)	0.19 µg/mL (≈ 0.479 µM)	EC50 (Zymoseptoria tritici [1]; [6]): 0.08 to 7.78 µg/mL (≈ 0.202 to 19.6 µM); application rate providing control (Zymoseptoria tritici [4]): ≥ 30 mg/L; in planta control (in words) (Zymoseptoria tritici [4]): not controlled
